Laboratory results published in article PMC4821887, “Identification of chemicals that mimic transcriptional changes associated with autism, brain aging and neurodegeneration” (Nature Communications, 2016).
“Also recorded” adds a separate entry of the source.

Columns and labels:
[1] = tested on: mouse cortical neuron-enriched cultures; assay: RNA-seq transcriptional screen with hierarchical clustering and cluster membership; type: cell-based; conditions: 24 h at non-toxic concentration; hierarchical clustering of 5,121 variably expressed genes
Method: Cultures were treated with the non-cytotoxic dose of each chemical, by exchanging half of the original medium with chemicals at 2 × concentration in prewarmed feeding medium, on DIV 7 for 24 h in 12-well plates at a density of 5 × 10^5 cells per well. RNA was isolated using RNeasy plus mini kit (Cat. #74134, Qiagen). RNA yield and quality were determined using a Nanodrop 1000 Spectrophotometer (Thermo Scientific). Samples were further assessed for quality using either an Agilent Bioanalyzer 2100 or TapeStation 2200 to obtain a RIN. RIN values exceeding 7 were used for sequencing. RNA samples were used to generate and barcode complementary DNA libraries using the TruSeq RNA Library Preparation Kit at the UNC High Throughput Sequencing Facility. Pools of 24 multiplexed samples were sequenced per lane on an Illumina HiSeq 2500 using 50-bp paired-end reads.
RNA-seq reads were filtered using TagDust and aligned to the reference mouse genome (mm9) with TopHat using default parameters. Reads aligning to ribosomal RNA genes were removed. Transcript abundance was estimated by computing Reads per kilobase per million mapped reads (RPKM) using RefSeq gene models aggregated by gene symbol. For differential expression analyses, raw counts over RefSeq exons were used, and then were compared across samples using DESeq[62].
RPKMs for all RefSeq genes and all samples were filtered such that a given gene had >90% of samples with RPKM >0 and gene length exceeded 500 bp. RPKMs were then log10-transformed, quantile-normalized, median-centred, and the effects due to culture or sequencing batch were removed using a mixed model analysis of variance. This batch correction step was performed on individual experiments rather than chemical–vehicle ratios to reduce the effects due to variations in culture composition as well as batch-to-batch variations at the level of sequencing. Genes were then median-centred again, and filtered such that their s.d. exceeded 0.1. Chemical replicates were then combined using the median. Classes of chemicals were then discovered in two ways. First, we performed hierarchical clustering using average linkage and Pearson correlation distance measures. The boundaries of the discovered classes from clustering were set by computing pairwise Spearman correlations for all samples. A given cluster had to have at least three members with the minimum pairwise Spearman correlation coefficient exceeding 0.2, though cluster members often exceeded a correlation of 0.6 (Supplementary Fig. 5c,d). Seven chemical clusters were discovered, however one was removed due to failing to have a positive silhouette width, a metric of cluster robustness. These definitions enabled the three positive control topoisomerase inhibitors to form a cohesive group of chemicals with known structural and functional similarity (cluster 5). None of the culture or sequencing batches contributed to the formation of any one of the final six clusters (Supplementary Fig. 4).

[2] = tested on: Rest, Gsta4, Gstm1, Hmox1 transcripts in cortical cultures; assay: Quantitative real-time PCR of cluster 2 upregulated genes; type: cell-based, mouse; conditions: fenamidone 10 μM or indicated doses, 24 h, relative to vehicle
Method: Total RNA was extracted and purified using the RNeasy plus mini kit (Qiagen) following the manufacturer's instructions. RNA was quantified using Nanodrop 1000 (Thermo Scientific) and reverse transcribed using iScript Reverse Transcription Supermix (Bio-Rad). Quantitative real-time PCR analysis was performed in technical duplicates using SYBR Green PCR master mix (Applied Biosystems) in a 7500 Real-Time PCR instrument (Applied Biosystems). An amount of 10 ng of complementary DNA was used in each reaction. Fold change of expression of the target RNA in each treatment condition relative to the untreated sample were calculated by raising 2 to the power of −ΔΔCt. ΔΔCt was calculated by subtracting the ΔCt of the untreated sample to the ΔCt of each treatment condition. The ΔCt of each sample was calculated by subtracting the average Ct of Gapdh to the average Ct of the target RNA. The following primers were used at a final concentration of 0.5 μM:
Rest (F: 5′-[…]-3′, R: 5′-[…]-3′); Gsta4 (F: 5′-[…]-3′, R: 5′-[…]-3′); Gstm1 (F: 5′-[…]-3′, R: 5′-[…]-3′); Hmox1 (F: 5′-[…]-3′, R: 5′-[…]-3′); and Gapdh (F: 5′-[…]-3′, R: 5′-[…]-3′).

[3] = tested on: mouse cortical neuron cultures; assay: Fluorescence immunocytochemistry for cellular composition (NeuN, Gfap, Iba1); type: cell-based; conditions: 10 μM, 24 h, relative to vehicle
[4] = in vivo; cited from earlier work

CSC1=N[C@@](C)(c2ccccc2)C(=O)N1Nc1ccccc1 [fenamidone]
Chemical cluster assigned by gene expression [1]: cluster 2
Expression of Nrf2 target antioxidant response genes and Rest (qRT-PCR validation) [2]: Upregulated
Change in cellular composition (number of NeuN, Gfap or Iba1 positive cells) [3]: did not; also recorded: no significant change
Neurotoxicity in a set of assays used by regulatory agencies [4]: No evidence of neurotoxicity
